According to publication PMC6212638, “In silico identification and biochemical characterization of the human dicarboxylate clamp TPR protein interaction network” (FEBS Open Bio, 2018):

How the values were obtained:
[1] = tested on: Tom70; conditions: cited from earlier work
Text: First, we tested the ability of unlabeled Hsp90 and Tom20 peptides to compete with their HRP‐labeled analogues for binding to Tom70, the known partner for both Hsp90 and Tom20 proteins.

[2] = tested on: Tom70; assay: Dot-blot assay of Tom70 with HRP-conjugated Hsp90 and Tom20 peptides in presence of unconjugated peptides; format: binding, human; conditions: 20 μM unconjugated peptide
Procedure: (§1) In subsequent experiments, non‐fluorescent peptides were used. […] Cell impermeable Hsp90 peptide served as a treatment control.
Figure 6 In vitro and in situ analysis of interactions of 10‐amino‐acid peptides corresponding to C termini of Hsp90 and Tom20 with Tom70. (A) Dot‐blot assay of interactions between Tom70 and HRP‐conjugated 10‐amino‐acid peptides corresponding to C termini of Hsp90 and Tom20 in the presence of 20 μM of unconjugated peptides. (B) Fluorescence imaging of HEK293 cells in the presence of 20 μM of fluorescein‐labeled Hsp90, R9–Hsp90, Tom20 and R9–Tom20 peptides. (C) Inhibition of Tom20–Tom70 and Hsp90–Tom70 interactions with R9–Hsp90 and R9–Tom20 in HEK293 cells measured by PLA. n = 3. Graphs were created and SD values were calculated using PRISM, version 7.02. *P‐value < 0.05 compared to control; comparisons are based on one‐way ANOVA. (D) Inhibition of Tom20–Tom70 and Hsp90–Tom70 interactions with R9–Hsp90 and R9–Tom20 in HEK293 cells measured by mammalian two‐hybrid assay. n = 3. Graphs were created and SD values were calculated using PRISM, version 7.02. *P‐value < 0.05 compared to control; comparisons are based on one‐way ANOVA.

[3] = target: T1, AIP (Homo sapiens, UniProt O00170); assay: Dot-blot competition assay: HRP-conjugated peptide vs unlabeled peptide on nitrocellulose-immobilized AIP
T1 sequence (O00170 1-330): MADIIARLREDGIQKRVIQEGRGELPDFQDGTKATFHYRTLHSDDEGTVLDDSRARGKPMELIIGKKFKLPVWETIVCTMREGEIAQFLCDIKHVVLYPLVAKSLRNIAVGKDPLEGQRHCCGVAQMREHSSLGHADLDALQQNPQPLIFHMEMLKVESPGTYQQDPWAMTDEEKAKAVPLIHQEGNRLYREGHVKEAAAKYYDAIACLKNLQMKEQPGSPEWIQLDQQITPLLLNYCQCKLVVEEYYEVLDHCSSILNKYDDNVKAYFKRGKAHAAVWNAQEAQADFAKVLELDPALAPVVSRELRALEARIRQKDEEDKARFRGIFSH
Procedure: (§4) Full‐length cDNA clones for respective proteins were obtained from IMAGE consortium (SourceBioScience, Nottingham, UK) and PCR amplified with forward and reverse primers (Table 1) containing overhangs with appropriate restriction sites and cloned into pGEX6 vectors (GE Healthcare, Uppsala, Sweden). Inserts were sequence verified, and the plasmids were transformed into BL21 Escherichia coli strain. Glutathione‐S‐transferase (GST) fusion proteins were purified from 1 L overnight culture after 2 h of induction with 1 mM IPTG. Cells were pelleted, resuspended in 1× PBS and sonicated 3 × 20 s on ice. EDTA and protease inhibitor cocktail were added to prevent proteolysis. The suspension was centrifuged for 30 min at 50 000 g to remove cell debris, and supernatant was loaded onto a 1 mL GSTrap™ 4B column (GE Healthcare). After column washing with 30 mL PBS, GST fusion proteins were eluted with 2.5 mL 10 mM glutathione in PBS. Eluate was passed through a PD‐10 column (GE Healthcare) to remove free glutathione. To prepare GST‐tag‐free proteins, we performed overnight cleavage at 4 °C with PreScission protease (GE Healthcare) followed by passage through a GSTrap column to remove free GST protein. Average yield from 1 L starting culture was 1–5 mg of purified proteins. Protein‐containing fractions were collected, checked with SDS/PAGE and kept at −20 °C.
(§5) Peptides were dissolved in HEPES‐KOH buffer pH 7.2 at concentration of 1 mg·mL^−1 and incubated with equimolar amounts of activated horseradish peroxidase (HRP) (Lightning‐link® HRP labeling kit cat. 701‐004, from Innova Biosciences) for 5 min. Reaction was quenched with 0.1 M Tris/HCl, pH 7.5 for 10 min and the products were passed through PD‐10 columns (GE Healthcare). Dot‐blot experiments were performed using GST‐tag‐free proteins applied to the nitrocellulose membrane. After blocking of membrane with 3% BSA in TBS‐T buffer for 1 h and subsequent wash with TBS‐T, HRP‐conjugated peptides (1 × 500 times dilution) were applied and incubated for 1 h. After subsequent washing (3 × 10 min, TBS‐T), membrane was dried and signals were quantified using a digital Fujifilm LAS3000 imager and LAS3000 software. In competition experiments, increasing concentrations of unlabeled peptides were co‐incubated with peptide–HRP conjugates.
(§6) Each peptide was separately coupled to HRP.

[4] = target: T2, FKBP51 (Homo sapiens, UniProt Q13451); assay: Dot-blot competition assay: HRP-conjugated peptide vs unlabeled peptide on immobilized FKBP51
T2 sequence (Q13451 1-457): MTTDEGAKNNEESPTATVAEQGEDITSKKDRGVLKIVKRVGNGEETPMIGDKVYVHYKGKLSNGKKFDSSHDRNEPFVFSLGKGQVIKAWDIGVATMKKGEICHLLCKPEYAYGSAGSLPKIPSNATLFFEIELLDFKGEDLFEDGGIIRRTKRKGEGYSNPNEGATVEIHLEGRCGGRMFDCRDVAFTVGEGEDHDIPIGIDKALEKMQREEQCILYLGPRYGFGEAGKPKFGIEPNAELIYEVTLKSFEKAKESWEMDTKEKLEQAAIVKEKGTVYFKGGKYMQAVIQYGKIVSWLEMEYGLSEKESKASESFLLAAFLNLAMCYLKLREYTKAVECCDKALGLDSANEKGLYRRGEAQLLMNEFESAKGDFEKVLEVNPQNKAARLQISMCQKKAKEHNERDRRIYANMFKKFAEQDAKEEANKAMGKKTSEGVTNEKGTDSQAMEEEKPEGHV
Procedure: as §4, §5, §6

[5] = tested on: HEK293 cells; conditions: N-terminally fluorescein-labeled peptides, 20 μM, fluorescence imaging
Text: (§2) P < 0.05 was considered to be statistically significant. Data are presented as mean ± SEM.

[6] = tested on: Hsp90–Tom70 interaction; assay: Proximity ligation assay (PLA) of Hsp90–Tom70 interaction in HEK293 cells; format: cell-based, human; conditions: non-fluorescent peptide, n = 3
Text: as §2, §1

[7] = tested on: Hsp90–Tom70 interaction; assay: Mammalian two-hybrid assay (luciferase) of Hsp90–Tom70 interaction in HEK293 cells; format: cell-based, human; conditions: peptide 20 μM added 4 h after transfection, 48 h, n = 3
Text: (§3) Tom70 sequence was PCR amplified and subcloned into pACT vector of CheckMate™ mammalian two‐hybrid system (Promega, Madison, WI, USA) using SalI/NotI restriction sites, and Hsp90 and Tom20 DNA sequences were PCR amplified and subcloned into pBIND vector using SalI/NotI restriction sites. Tom70‐pACT/Hsp90‐pBIND and Tom70‐pACT/Tom20‐pBIND were co‐transfected with pLuc plasmid in a 1 : 1 : 1 molar ratio into HEK293 cells using Lipofectamine 3000 transfection reagent (Invitrogen, Carlsbad, CA, USA) according to the manufacturer's protocol. Triplicate samples in 96‐well cell culture plates Corning (Tewskbury, MA, USA) were used in each experiment. Hsp90, R9–Hsp90, Tom20 and R9–Tom20 peptides at concentration 20 μM were added 4 h after transfection. HEK293 cells were cultivated for 48 h, washed twice with PBS and lysed with PBS containing 1% Triton X‐100. Luciferase expression was detected using a luciferase assay kit from BioThema (Huddinge, Sweden) on a 96‐well plate reader from Perkin Elmer (Upplands Väsby, Stockholm, Sweden).
as §1

[8] = tested on: Tom20–Tom70 interaction; assay: Mammalian two-hybrid assay (luciferase) of Tom20–Tom70 interaction in HEK293 cells; format: cell-based, human; conditions: peptide 20 μM added 4 h after transfection, 48 h, n = 3
Text: as §3, §1

[9] = tested on: Tom20–Tom70 interaction; assay: Proximity ligation assay (PLA) of Tom20–Tom70 interaction in HEK293 cells; format: cell-based, human; conditions: non-fluorescent peptide, n = 3
Text: as §2, §1

Row | Compound | affinity for Tom70 relative to 10-mer Tom20 peptide [1] | competition with HRP-conjugated Hsp90 peptide for Tom70 binding [2] | competition with HRP-conjugated Tom20 peptide for Tom70 binding [2] | IC50 [3] | IC50 [4] | fluorescein staining of HEK293 cells (peptide translocation into the cells) [5] | decrease of Hsp90–Tom70 interaction signal (PLA) [6] | inhibition of Hsp90–Tom70 interaction (mammalian two-hybrid, luciferase) [7] | inhibition of Tom20–Tom70 interaction (mammalian two-hybrid, luciferase) [8] | decrease of Tom20–Tom70 interaction signal (PLA) [9]
1 | CSCC[C@H](NC(=O)[C@H](CCCNC(=N)N)NC(=O)[C@H](CO)NC(=O)[C@H](C)NC(=O)[C@H](CC(=O)O)NC(=O)[C@@H](N)CCC(=O)O)C(=O)N[C@@H](CCC(=O)O)C(=O)N[C@@H](CCC(=O)O)C(=O)N[C@H](C(=O)N[C@@H](CC(=O)O)C(=O)O)C(C)C [Hsp90β] | more than 10 fold | effectively competes | effectively competes | 17.8 ± 1.35 µM | 18.9 ± 3 µM |  |  |  |  | 
2 | H-RRRRRRRRREDASRMEEVD-OH [R9–Hsp90, cell‐permeant analog of the Hsp90 peptide containing a nine‐arginine N‐terminal tag] |  |  |  |  |  | resulted in HEK293 cells staining | approximately 50% | inhibited | sensitive | approximately 50%
